Columns and labels:
[1] = test system: androgen-stimulated prostate growth; test: Anti-Androgen Test, adult castrated male rats (ventral prostate weight); type: in vivo; conditions: for Mean Prostate Weight: Experiment A
Procedure: The antiandrogenic property of the compounds was evaluated in the following tests, in which the compound of Example 3 was used again.
The animals used in this test were adult male rats having a body weight which averaged about 330 g. when the experiment ended. All of the animals to be used in the experiment were castrated by the scrotal route, and were held untreated for 3 days. On the fourth day, subcutaneous administration of 0.1 mg./day of an exogenous androgen, testosterone propionate, was begun, and was continued for seven consecutive days. An untreated control group of animals received injections of 0.1 ml./day of corn oil as a blank treatment. The compound of this invention was administered orally or subcutaneously to the treated animals in 0.1 ml. of corn oil, at the same time that the androgen was administered. The animals were sacrificed 24 hours after the last injection of testosterone propionate, the ventral prostate glands were removed and weighed, and the mean of the weights of each treatment group was reported. The table below reports the mean weights resulting from administration of various doses of the compound along with androgen.
Each treatment group of animals in this experiment consisted of seven to nine animals, except for the untreated control group, which contained twelve animals.

estrogenic response [2] = test: Estrogenic Response Test, mature ovariectomized mice (uterine weight); type: in vivo, adult ovariectomized mice; conditions: Experiment E, s.c.
Procedure: (§1) The first test reported below is used to determine the estrogenic potency of compounds. It is well known that many compounds having antiestrogenic activity also, typically, have estrogenic activity. As has been explained, estrogenic activity is a liability in an antiestrogen, and thus it is important to identify antiestrogens having a minimum amount of estrogenic activity. This test was conducted with immature 40-45 g. female rats, immature 11-13 g. mice, and adult ovariectomized mice. The rats were tested in groups of six, and mice in groups of ten. All of the laboratory animals were from standardized strains and were equilibrated to the laboratory before the test started. Each test was begun by administering the test compound daily for three days, as a subcutaneous injection or by oral gavage, as indicated below in the reports of individual experiments. Untreated control animals were included in each experiment, along with animals to which estradiol was administered subcutaneously. The estradiol-treated animals provided positive controls, showing the physiological effect of a potent estrogen on the individual group of animals used in the experiment. […] The test animals were treated for three days and sacrificed on the fourth day, and the uteri were removed, freed of extraneous tissue, and blotted with paper towels. The uteri were weighed to the nearest 0.1 mg. The tables below report the results of representative experiments. The doses of estradiol and of the compound of this invention are given as the total of the three daily doses. The uterine weights are given, in mg., as the means of all of the organ weights of the animals in a group. Compounds are referred to by their example numbers above.

[3] = test system: estrogenic response of estradiol; test: Antiestrogenic Test, mature ovariectomized mice (uterine weight); type: in vivo, adult ovariectomized mice; conditions: Experiment A, s.c. + estradiol 0.3 mcg.
Procedure: (§2) This test was conducted with immature 40-45 g. female rats, immature 11-13 g. mice, and adult ovariectomized mice. The rats were tested in groups of six, and mice in groups of ten. All of the laboratory animals were from standardized strains and were equilibrated to the laboratory before the test started. Each test was begun by administering the test compound daily for three days, as a subcutaneous injection or by oral gavage, as indicated below in the reports of individual experiments.
(§3) The test animals were treated for three days and sacrificed on the fourth day, and the uteri were removed, freed of extraneous tissue, and blotted with paper towels. The uteri were weighed to the nearest 0.1 mg.
(§4) The uterine weights are given, in mg., as the means of all of the organ weights of the animals in a group. Compounds are referred to by their example numbers above.
(§5) The same standardized types of laboratory animals which were used in the experiments described above were also used in these experiments. […] Untreated control animals were used in each experiment. […] The dosage and sacrifice schedule, and the method of determining uterine weights and reporting data, were the same as the methods described above under Test 1.

[4] = test system: estrogenic response of estradiol; test: Antiestrogenic Test, immature rats (uterine weight); type: in vivo
Procedure: as §2, §3, §4, §5

estrogenic response [5] = test: Regression Test: reversal of established estrogenic response (uterine weight); type: in vivo, immature rats; conditions: estradiol 0.1 mcg./day 3 days
Procedure: The following test was carried out to determine if the compounds of this invention could reverse an estrogenic response, when administration of the compound was started after the estrogenic response had become established.
The test animals were immature rats, and all administrations were by subcutaneous injection.
The mean uterine weights of these groups of animals, respectively, were 97.9, 97.3, 119.9 and 112.3 mg.
The animals were sacrificed on the fifth day and their mean uterine weight was 56.4 mg.
The animals were sacrificed on the seventh day and their mean uterine weight was 57.0 mg.

estrogenic response [6] = test: Estrogenic Response Test, immature mice (uterine weight); type: in vivo, immature 11-13 g. mice; conditions: Experiment D, s.c.
Procedure: as §1

O=C(c1ccc(OCCN2CCCCC2)cc1)c1c(-c2ccc(O)cc2)sc2cc(O)ccc12 [Example 3, 6-hydroxy-2-(4-hydroxyphenyl)-3-[4-(2-piperidinoethoxy)benzoyl]benzo[b]thiophene]
Mean Prostate Weight ([1]; 0.01 mg./day, S.C. + testosterone propionate 0.1 mg./day): 253 mg
Mean Prostate Weight ([1]; 0.01 mg./day, oral + testosterone propionate 0.1 mg./day): 192 mg
Mean Prostate Weight ([1]; 0.1 mg./day, S.C. + testosterone propionate 0.1 mg./day): 235 mg
Mean Prostate Weight ([1]; 0.1 mg./day, oral + testosterone propionate 0.1 mg./day): 267 mg
Mean Prostate Weight ([1]; 1 mg./day, S.C. + testosterone propionate 0.1 mg./day): 201 mg
Mean Prostate Weight ([1]; 1 mg./day, oral + testosterone propionate 0.1 mg./day): 242 mg
effect on androgen-stimulated prostate growth ([1]; conclusion in words, Experiments A-C): inhibited a large part of the abnormal prostate growth
Uterine weight (estrogenic response [2]; total dose 3 mg.): 23.1 mg
Uterine weight (estrogenic response [2]; total dose 0.3 mcg.): 18.2 mg
Uterine weight (estrogenic response [2]; total dose 3 mcg.): 25.6 mg
Uterine weight (estrogenic response [2]; total dose 30 mcg.): 26.2 mg
Uterine weight (estrogenic response [2]; total dose 300 mcg.): 24.8 mg
Uterine weight ([3]; 3 mg.): 21.3 mg
Uterine weight ([3]; 0.3 mcg.): 54.9 mg
Uterine weight ([3]; 3 mcg.): 48.7 mg
Uterine weight ([3]; 30 mcg.): 31.1 mg
Uterine weight ([3]; 300 mcg.): 22.1 mg
Uterine weight ([4]; Experiment C, 3 mg., oral + estradiol 0.3 mcg., s.c.): 30.6 mg
Uterine weight ([4]; Experiment C, 3 mcg., oral + estradiol 0.3 mcg., s.c.): 55.0 mg
Uterine weight ([4]; Experiment C, 30 mcg., oral + estradiol 0.3 mcg., s.c.): 46.7 mg
Uterine weight ([4]; Experiment C, 300 mcg., oral + estradiol 0.3 mcg., s.c.): 31.3 mg
Uterine weight ([4]; Experiment D, 3 mg., s.c. + estradiol 0.3 mcg.): 28.0 mg
Uterine weight ([4]; Experiment D, 3 mcg., s.c. + estradiol 0.3 mcg.): 53.6 mg
Uterine weight ([4]; Experiment D, 30 mcg., s.c. + estradiol 0.3 mcg.): 33.7 mg
Uterine weight ([4]; Experiment D, 300 mcg., s.c. + estradiol 0.3 mcg.): 30.7 mg
Uterine weight ([4]; Experiment E, 3 mg., s.c. + estradiol 0.09 mcg.): 31.0 mg
Uterine weight ([4]; Experiment E, 3 mcg., s.c. + estradiol 0.09 mcg.): 42.5 mg
Uterine weight ([4]; Experiment E, 30 mcg., s.c. + estradiol 0.09 mcg.): 35.8 mg
Uterine weight ([4]; Experiment E, 300 mcg., s.c. + estradiol 0.09 mcg.): 33.7 mg
Uterine weight ([4]; Experiment F, 3 mg., s.c. + estradiol 0.15 mcg.): 36.2 mg
Uterine weight ([4]; Experiment F, 3 mcg., s.c. + estradiol 0.15 mcg.): 49.4 mg
Uterine weight ([4]; Experiment F, 30 mcg., s.c. + estradiol 0.15 mcg.): 40.9 mg
Uterine weight ([4]; Experiment F, 300 mcg., s.c. + estradiol 0.15 mcg.): 36.5 mg
Uterine weight ([4]; Experiment G, 3 mg., s.c. + estradiol 3 mcg.): 30.2 mg
Uterine weight ([4]; Experiment G, 3 mcg., s.c. + estradiol 3 mcg.): 71.9 mg
Uterine weight ([4]; Experiment G, 30 mcg., s.c. + estradiol 3 mcg.): 42.2 mg
Uterine weight ([4]; Experiment G, 300 mcg., s.c. + estradiol 3 mcg.): 33.7 mg
Uterine weight ([4]; Experiment H, 3 mg., s.c. + estradiol 30 mcg.): 33.1 mg
Uterine weight ([4]; Experiment H, 3 mcg., s.c. + estradiol 30 mcg.): 92.7 mg
Uterine weight ([4]; Experiment H, 30 mcg., s.c. + estradiol 30 mcg.): 60.2 mg
Uterine weight ([4]; Experiment H, 300 mcg., s.c. + estradiol 30 mcg.): 48.9 mg
mean uterine weight (estrogenic response [5]; then estradiol + 1 mg. compound s.c. on following five days, sacrificed ninth day): 50.7 mg
mean uterine weight (estrogenic response [5]; then estradiol + 1 mg. compound s.c. on following three days, sacrificed seventh day): 57.0 mg
mean uterine weight (estrogenic response [5]; then estradiol + 1 mg. compound s.c. on fourth day, sacrificed fifth day): 56.4 mg
Uterine weight (estrogenic response [6]; total dose 3 mg.): 14.6 mg
Uterine weight (estrogenic response [6]; total dose 0.03 mcg.): 19.0 mg
Uterine weight (estrogenic response [6]; total dose 0.3 mcg.): 19.3 mg
Uterine weight (estrogenic response [6]; total dose 3 mcg.): 22.9 mg
Uterine weight (estrogenic response [6]; total dose 30 mcg.): 23.9 mg
Uterine weight (estrogenic response [6]; total dose 300 mcg.): 19.3 mg

From patent publication US4418068A, “Antiestrogenic and antiandrugenic benzothiophenes” (Eli Lilly and Company, priority 1981, dated 1983)
